Legend:
Conditions in all cases: Compound Concentration 10.0 uM, Hit No
[1] = target: Uracil-DNA glycosylase (Homo sapiens) (UniProt P13051);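 further: UNG excision on a quenched double-stranded DNA oligo probe, with APE1 added for strand incision and turnover, read as fluorescence at 594 nm as strands separate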
Description: Inhibition of UNG by quantifying inhibition of UNG-mediated cleavage and dissociation of quenched duplex DNA oligonucleotides, measured as fluorescence at 594 nm. To generate a functional strand incision and increase turn-over this assay is coupled to APE1.

[2] = target: Endonuclease 8-like 1 (Homo sapiens) (UniProt Q96FI4);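 further: fluorescence at 594 nm from quenched duplex DNA oligonucleotides released by NEIL1 cleavage and strand separation, reported as reduction of this enzyme activity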
Description: Inhibition of NEIL1 by quantifying inhibition of NEIL1-mediated cleavage and dissociation of quenched duplex DNA oligonucleotides, measured as fluorescence at 594 nm.

[3] = target: T1, Adenine DNA glycosylase (Homo sapiens) (UniProt Q9UIF7);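 further: human MUTYH activity read as 594 nm fluorescence from cleavage and release of a quenched DNA duplex, coupled with APE1 for strand incision, lower signal meaning inhibition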
T1 sequence (whole entry): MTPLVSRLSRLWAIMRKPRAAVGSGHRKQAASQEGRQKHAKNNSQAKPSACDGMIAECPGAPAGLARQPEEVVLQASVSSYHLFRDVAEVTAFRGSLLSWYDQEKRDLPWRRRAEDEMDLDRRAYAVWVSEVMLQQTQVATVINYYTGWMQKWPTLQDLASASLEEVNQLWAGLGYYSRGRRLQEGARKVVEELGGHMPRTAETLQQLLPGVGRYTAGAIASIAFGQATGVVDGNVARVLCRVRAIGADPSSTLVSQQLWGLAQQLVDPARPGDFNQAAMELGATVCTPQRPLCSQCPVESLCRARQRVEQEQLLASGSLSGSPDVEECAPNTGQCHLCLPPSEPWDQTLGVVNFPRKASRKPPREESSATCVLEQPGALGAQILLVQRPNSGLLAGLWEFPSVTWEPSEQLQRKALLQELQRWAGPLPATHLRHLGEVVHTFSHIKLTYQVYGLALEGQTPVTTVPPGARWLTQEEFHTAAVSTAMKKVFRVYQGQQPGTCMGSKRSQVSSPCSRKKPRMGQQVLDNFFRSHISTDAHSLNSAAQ
Description: Inhibition of MUTYH by quantifying inhibition of MUTYH-mediated cleavage and dissociation of quenched duplex DNA oligonucleotides, measured as fluorescence at 594 nm. To generate a functional strand incision and increase turn-over this assay is coupled to APE1.

[4] = target: N-glycosylase/DNA lyase (Homo sapiens) (UniProt O15527);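 further: OGG1 cleavage of a quenched duplex DNA oligonucleotide, coupled to APE1 for strand incision, read as fluorescence at 594 nm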
Description: Inhibition of OGG1 by quantifying inhibition of OGG1-mediated cleavage and dissociation of quenched duplex DNA oligonucleotides, measured as fluorescence at 594 nm. To generate a functional strand incision and increase turn-over this assay is coupled to APE1.

[5] = target: DNA-3-methyladenine glycosylase (Homo sapiens) (UniProt P29372);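 further: enzyme assay where MPG cuts a quenched duplex DNA oligonucleotide probe, paired with APE1 for strand incision and turnover, read as fluorescence at 594 nm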
Description: Inhibition of MPG by quantifying inhibition of MPG-mediated cleavage and dissociation of quenched duplex DNA oligonucleotides, measured as fluorescence at 594 nm. To generate a functional strand incision and increase turn-over this assay is coupled to APE1.

[6] = target: T2, Endonuclease 8-like 2 (Homo sapiens) (UniProt Q969S2);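 further: fluorescence at 594 nm reports NEIL2 cutting and release of a quenched double-stranded DNA oligo substrate, reduced signal read as inhibition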
T2 sequence (whole entry): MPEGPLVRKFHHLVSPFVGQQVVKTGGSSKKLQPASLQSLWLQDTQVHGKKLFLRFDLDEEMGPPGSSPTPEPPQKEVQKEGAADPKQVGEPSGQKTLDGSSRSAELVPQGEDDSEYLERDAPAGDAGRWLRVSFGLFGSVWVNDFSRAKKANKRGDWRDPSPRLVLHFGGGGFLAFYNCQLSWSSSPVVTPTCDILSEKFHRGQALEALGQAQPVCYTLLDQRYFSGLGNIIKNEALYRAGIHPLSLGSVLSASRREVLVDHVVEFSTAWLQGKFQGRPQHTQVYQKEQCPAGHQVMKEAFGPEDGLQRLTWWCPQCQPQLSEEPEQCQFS
Description: Inhibition of NEIL2 by quantifying inhibition of NEIL2-mediated cleavage and dissociation of quenched duplex DNA oligonucleotides, measured as fluorescence at 594 nm.

[7] = target: G/T mismatch-specific thymine DNA glycosylase (Homo sapiens) (UniProt Q13569);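 further: human TDG cleavage of quenched duplex DNA oligonucleotides coupled to APE1, strand release read as fluorescence at 594 nm, inhibition of TDG activity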
Description: Inhibition of TDG by quantifying inhibition of TDG-mediated cleavage and dissociation of quenched duplex DNA oligonucleotides, measured as fluorescence at 594 nm. To generate a functional strand incision and increase turn-over this assay is coupled to APE1.

[8] = target: T3, Single-strand selective monofunctional uracil DNA glycosylase (Homo sapiens) (UniProt Q53HV7);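 further: enzymatic SMUG1 assay coupled with APE1, reading fluorescence at 594 nm released when a quenched double-stranded DNA oligonucleotide substrate is cleaved and separated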
T3 sequence (whole entry): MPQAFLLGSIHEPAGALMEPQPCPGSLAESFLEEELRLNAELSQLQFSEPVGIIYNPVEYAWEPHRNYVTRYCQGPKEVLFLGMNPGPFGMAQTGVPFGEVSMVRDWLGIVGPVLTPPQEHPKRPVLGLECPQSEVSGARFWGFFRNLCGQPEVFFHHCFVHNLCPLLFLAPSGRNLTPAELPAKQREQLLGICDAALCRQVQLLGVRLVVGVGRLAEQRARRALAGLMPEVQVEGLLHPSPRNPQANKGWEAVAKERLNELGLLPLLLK
Description: Inhibition of SMUG1 by quantifying inhibition of SMUG1-mediated cleavage and dissociation of quenched duplex DNA oligonucleotides, measured as fluorescence at 594 nm. To generate a functional strand incision and increase turn-over this assay is coupled to APE1.

[9] = target: T4, Endonuclease III-like protein 1 (Homo sapiens) (UniProt P78549);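 further: enzyme assay tracking NTHL1 cutting and release of a quenched double-stranded DNA oligo substrate, read as fluorescence at 594 nm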
T4 sequence (whole entry): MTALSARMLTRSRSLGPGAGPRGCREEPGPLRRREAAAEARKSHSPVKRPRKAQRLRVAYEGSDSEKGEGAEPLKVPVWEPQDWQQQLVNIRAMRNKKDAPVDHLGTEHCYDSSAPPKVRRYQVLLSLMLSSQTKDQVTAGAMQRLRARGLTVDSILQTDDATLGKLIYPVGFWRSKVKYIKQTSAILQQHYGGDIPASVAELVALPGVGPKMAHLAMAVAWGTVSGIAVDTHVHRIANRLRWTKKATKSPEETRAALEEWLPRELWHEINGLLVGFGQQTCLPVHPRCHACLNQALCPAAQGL
Description: Inhibition of NTHL1 by quantifying inhibition of NTHL1-mediated cleavage and dissociation of quenched duplex DNA oligonucleotides, measured as fluorescence at 594 nm.

[10] = target: Methyl-CpG-binding domain protein 4 (Homo sapiens) (UniProt O95243);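 further: MBD4 activity read as fluorescence at 594 nm from cleavage and release of a quenched duplex DNA oligonucleotide, with APE1 coupled to incise the strand and raise turnover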
Methyl-CpG-binding domain protein 4 (Homo sapiens), sequence (O95243 whole entry, the tested form may be a part): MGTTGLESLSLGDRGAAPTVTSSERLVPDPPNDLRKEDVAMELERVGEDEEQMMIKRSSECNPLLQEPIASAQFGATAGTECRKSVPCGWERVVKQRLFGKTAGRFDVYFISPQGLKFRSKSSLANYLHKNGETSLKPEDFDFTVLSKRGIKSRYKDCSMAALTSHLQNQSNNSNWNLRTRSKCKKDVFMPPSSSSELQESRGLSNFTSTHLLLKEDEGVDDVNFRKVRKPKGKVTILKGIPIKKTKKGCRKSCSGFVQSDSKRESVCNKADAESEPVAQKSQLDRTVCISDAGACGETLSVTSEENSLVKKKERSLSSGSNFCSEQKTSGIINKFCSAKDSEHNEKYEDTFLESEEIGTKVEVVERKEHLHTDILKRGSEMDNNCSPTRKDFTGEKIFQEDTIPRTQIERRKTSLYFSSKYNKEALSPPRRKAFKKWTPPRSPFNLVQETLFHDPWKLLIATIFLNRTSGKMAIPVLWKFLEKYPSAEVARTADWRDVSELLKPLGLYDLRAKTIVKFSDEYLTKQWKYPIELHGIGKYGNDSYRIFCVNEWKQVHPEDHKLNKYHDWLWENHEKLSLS
Description: Inhibition of MBD4 by quantifying inhibition of MBD4-mediated cleavage and dissociation of quenched duplex DNA oligonucleotides, measured as fluorescence at 594 nm. To generate a functional strand incision and increase turn-over this assay is coupled to APE1.

G/T mismatch-specific thymine DNA glycosylase (Homo sapiens), sequence (Q13569 whole entry): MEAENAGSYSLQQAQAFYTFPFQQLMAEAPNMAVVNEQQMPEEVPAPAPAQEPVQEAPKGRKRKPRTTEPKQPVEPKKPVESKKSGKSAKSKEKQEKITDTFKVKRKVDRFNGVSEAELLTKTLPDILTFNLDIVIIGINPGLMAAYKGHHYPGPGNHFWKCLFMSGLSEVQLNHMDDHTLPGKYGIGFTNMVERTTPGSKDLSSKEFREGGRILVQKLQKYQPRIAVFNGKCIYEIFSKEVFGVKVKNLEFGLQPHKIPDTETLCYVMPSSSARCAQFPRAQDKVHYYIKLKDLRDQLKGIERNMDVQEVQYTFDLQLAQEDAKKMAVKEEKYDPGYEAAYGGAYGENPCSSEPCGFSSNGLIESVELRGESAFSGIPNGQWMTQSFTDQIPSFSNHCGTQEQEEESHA
Uracil-DNA glycosylase (Homo sapiens), sequence (P13051 whole entry): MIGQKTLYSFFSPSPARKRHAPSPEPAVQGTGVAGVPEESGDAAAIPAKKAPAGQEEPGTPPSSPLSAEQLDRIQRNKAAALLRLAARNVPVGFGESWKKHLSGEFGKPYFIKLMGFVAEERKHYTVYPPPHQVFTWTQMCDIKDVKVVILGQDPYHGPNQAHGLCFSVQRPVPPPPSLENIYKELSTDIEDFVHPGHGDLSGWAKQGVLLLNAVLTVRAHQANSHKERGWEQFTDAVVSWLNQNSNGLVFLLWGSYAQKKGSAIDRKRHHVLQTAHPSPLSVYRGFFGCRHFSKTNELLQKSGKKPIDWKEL
N-glycosylase/DNA lyase (Homo sapiens), sequence (O15527 whole entry): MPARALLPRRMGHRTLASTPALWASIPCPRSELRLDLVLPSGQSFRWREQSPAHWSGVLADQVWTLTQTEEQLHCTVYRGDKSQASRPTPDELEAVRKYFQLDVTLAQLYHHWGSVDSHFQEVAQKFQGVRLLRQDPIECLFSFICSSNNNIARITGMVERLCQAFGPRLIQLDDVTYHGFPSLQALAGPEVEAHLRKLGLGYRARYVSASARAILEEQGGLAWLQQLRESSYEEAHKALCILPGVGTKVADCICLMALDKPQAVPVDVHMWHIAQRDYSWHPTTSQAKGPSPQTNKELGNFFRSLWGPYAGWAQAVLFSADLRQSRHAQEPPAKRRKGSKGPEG
Endonuclease 8-like 1 (Homo sapiens), sequence (Q96FI4 whole entry): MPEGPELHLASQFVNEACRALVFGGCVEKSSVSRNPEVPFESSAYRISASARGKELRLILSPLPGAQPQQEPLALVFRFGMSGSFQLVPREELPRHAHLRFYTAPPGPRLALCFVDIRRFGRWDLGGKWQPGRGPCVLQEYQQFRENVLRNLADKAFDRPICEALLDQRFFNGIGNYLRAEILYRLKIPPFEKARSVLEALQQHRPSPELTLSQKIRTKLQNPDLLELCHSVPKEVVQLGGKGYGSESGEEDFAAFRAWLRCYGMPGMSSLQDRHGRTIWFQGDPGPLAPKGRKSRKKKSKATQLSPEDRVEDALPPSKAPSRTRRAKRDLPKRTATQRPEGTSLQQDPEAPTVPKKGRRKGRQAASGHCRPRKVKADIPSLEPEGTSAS
DNA-3-methyladenine glycosylase (Homo sapiens), sequence (P29372 whole entry): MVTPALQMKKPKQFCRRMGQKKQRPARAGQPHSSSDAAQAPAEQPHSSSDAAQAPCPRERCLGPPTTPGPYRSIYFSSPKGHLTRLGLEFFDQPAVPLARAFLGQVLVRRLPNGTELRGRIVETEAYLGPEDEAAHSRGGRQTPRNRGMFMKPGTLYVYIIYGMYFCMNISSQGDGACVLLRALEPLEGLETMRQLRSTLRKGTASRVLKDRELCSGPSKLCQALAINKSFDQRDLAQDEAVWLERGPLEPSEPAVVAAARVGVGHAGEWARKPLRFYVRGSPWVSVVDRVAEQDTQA

Compound | inhibition [1] [%] | inhibition [2] [%] | inhibition [3] [%] | inhibition [4] [%] | inhibition [5] [%] | inhibition [6] [%] | inhibition [7] [%] | inhibition [8] [%] | inhibition [9] [%] | inhibition [10] [%]
CC(C)(C(=O)O)c1ccc(C(O)CCCN2CCC(C(O)(c3ccccc3)c3ccccc3)CC2)cc1 (stereo not drawn) | -8.82 | -7.32 | -0.107 | -9.14 | -4.6 | 8 | 8.16 | -3.57 | 2.66 | 
CNc1nc(Nc2ccccc2)nc(OC(C(F)(F)F)C(F)(F)F)n1 | 1.86 | 2.83 | -4.15 | -3.77 | -9.6 | 1.69 | 4.54 | 2.08 | 19.6 | 
CC(C)c1ccc(CC(=O)N[C@H](C)c2ccc(OCC(F)(F)F)cn2)cc1 | -0.689 | 3.42 | -5.06 | -4.46 | 9.35 | -3.66 | -9.7 | 4.45 | 8 | 
O=C(O)[C@H]1O[C@H](OP(=O)(O)OP(=O)(O)OC[C@H]2O[C@@H](n3ccc(=O)[nH]c3=O)[C@H](O)[C@@H]2O)[C@H](O)[C@@H](O)[C@@H]1O |  |  | 14.9 |  | 24.7 | -7.23 | 15.8 |  | 15.4 | 18.3
O=C(Nc1cccc(C(F)(F)F)c1)c1cc(Cl)ccc1O | -2.86 | -4.58 | 0.595 | -6.43 | 23.5 | -5.45 | 4.24 | 0.608 | 5.52 | 
COC(c1ccccc1)(c1ccccc1)[C@H](Oc1nc(C)cc(C)n1)C(=O)O | -5.94 | 9.14 | 23.3 | 1.14 | 4.85 | 10.8 | 14.5 | -3.28 | 6.32 | 
Cc1ccc(S(=O)(=O)Nc2ccc(-n3nc(C(F)(F)F)cc3C(F)(F)F)cc2)cc1 | -1.93 | 3.57 | -4.85 | 21.7 | 20 | 5 |  | 19.1 | 16.2 | 
COC[C@@H](c1ccc(C(F)(F)F)cc1)N1CCN(C2(C)CCN(C(=O)c3c(C)ncnc3C)CC2)C[C@@H]1C | -3.97 | -4.58 | 7.5 |  | -7.67 |  | -1.76 |  | 16.2 | 11.1
O=C(Nc1cc(C(F)(F)F)cc(C(F)(F)F)c1)c1cc(Cl)ccc1O | -1.16 | 1.2 | -9.19 | 28.6 | 9.82 | -3.41 |  | 4.73 | 6.35 | 
c1ccc2c(c1)CCC[C@H]2Nc1nc2ccccc2[nH]1 | -4.72 | 4.46 | 2.96 | 1.89 | 9.2 | 3.47 | 8.8 | -5.61 | 4.7 | 
CCCCCCCC/C=C\CCCCCCCC(N)=O | -8.52 | 12.4 | 15.9 | 4.44 | 17.3 | 2.51 | 12.1 | -2.07 | 2.66 | 
Cc1cc(C)c(NC(=O)C2CC3CCC2C3)c(C)c1 (stereo not drawn) | -9.01 | -1.18 | 27.8 |  | 7.56 |  | 5.7 |  | 6.35 | 26.4
H-RPPGFSPFR-OH | 2.31 | 4.01 | 29 | -0.678 | 15.2 | -1.37 | 26.9 | 5.92 | 1.39 | 
C[C@@H](OC[C@@]1(c2ccccc2)CC[C@]2(CCC(=O)N2)CN1)c1cc(C(F)(F)F)cc(C(F)(F)F)c1 | -7.13 | -1.98 | 10.9 | -0.784 | -7.57 | 6.75 | 9.1 | -1.58 | -6.14 | 
CN1CCC(C(=O)c2cccc(NC(=O)c3c(F)cc(F)cc3F)n2)CC1 | -8.11 | 4.54 | 9.62 | -2.69 | 2.3 | -1.73 | 19.6 | -9.63 | -6.14 | 
CC1(C)Cc2c(CN3CCC4(CC3)CCN(C(=O)c3ccc(N)cn3)CC4)cccc2O1 |  | 7.27 | 2.36 |  | 8.62 | -6.46 | -2.08 |  | 8.82 | 21.4
CC[C@H](NC(=O)c1c(C)c(-c2ccccc2)nc2ccccc12)c1ccccc1 | -6.75 | -0.204 | 0.0213 | -1.61 | 4.04 | -1.98 | -2.42 | -0.0333 | 9.25 | 
CN(C(=O)/C=C/c1ccoc1)[C@@H]1CC[C@@]2(O)[C@H]3Cc4ccc(O)c5c4[C@@]2(CCN3CC2CC2)[C@H]1O5 | -6.84 | 14.2 | 8.72 | -1.76 | 5.81 | 1.76 | 13.5 | -7.79 | 1.92 | 
NCCc1ccc(O)c(O)c1 | -7.47 | 2.32 | 17.9 | -1.68 | -0.746 | -3.23 | 8.49 | -4.83 | 21 | 
CC(C)NCC(O)c1ccc(N)c(C#N)c1 (stereo not drawn) |  | -4.21 | 4.24 | -2.67 | 0.373 | -8.72 | -4.14 | -9.04 | 12.9 | 
CC[S+]([O-])c1nc(-c2cccc(OCc3ccccc3)c2)cc(C(F)(F)F)n1 (stereo not drawn) | -7.73 | 5.43 | -4.2 | 6.41 | -6.11 | 10.8 | 4.54 | 4.67 | -3.94 | 
O=C1c2ccccc2C(Cc2ccncc2)(Cc2ccncc2)c2ccccc21 |  | 6.83 | 8.2 |  | 12.1 | -2.64 | 21.3 |  | 20.4 | 23.6
CC1(C)N=C(C2CCCCC2)c2ccc(C#N)cc2N(c2ccc(NCCNC3CCOCC3)cc2)C1=O |  | 4.75 | 1.14 |  | 7.31 | -3.41 | 5.19 |  | 19.6 | 10.6
C[C@H](C[C@H](N)C(=O)O)C(=O)O |  | -6.51 | 17 |  | 14.2 | 0.414 | 0.112 |  | -6.04 | 13.5
